Measured values as given in patent publication US11571413B2, “Nicotinamide riboside treatments of domesticated meat animals” (Kansas State University Research Foundation, priority 2017, dated 2023).
Several values for one entry are separate records, joined by “and”; a condition that tells them apart may be missing. Equal values may be shown once. Marks after values point to notes of the source that are not given here.

Assays:
fertilized broiler eggs = assay: Immunohistochemical analysis of muscle fiber CSA during in ovo myogenesis (Example 1); assay type: in vivo, chicken; settings: 100 μl 250 mM NR in ovo at 11 d
Procedure: At 11-days of incubation, 60 fertilized broiler eggs were randomly assigned to completely randomized design with a 2×2 factorial arrangement. Factor 1 comprised treatment, with eggs injected with 100 μl of 0.9% sterile saline solution (NRNeg) or 250 mM NR in sterile saline (NRPos). Factor 2 comprised injection location, with treatments injected into the yolk or albumen. Eggs were incubated at 37±3° C. and a relative humidity of 40±2% for 7 days. Humidity was increased to 60±2% at the same temperature for the final 3 days of incubation. Twenty-four hours after hatching, chicks were euthanized by exposure to CO2 and decapitation. Measurements including chick weight and left Pectoralis major weight, length, and depth were taken for analysis. Immunohistochemical analysis was conducted to determine if NR supplementation increased muscle fiber cross-sectional area (CSA) during in ovo myogenesis. There were no Treatment×Location or Treatment and Location main effects for muscle fiber CSA (P>0.06). […] This is desired heavily in meat producing animals.

finishing barrows = assay: Finishing pig growth performance (Example IV); assay type: in vivo
Procedure: Seven days prior to the beginning of the experiment, 10 finishing barrows (initial BW 111.9±1.6 kg) were assigned to individual pens located at the East Finisher facility of the Kansas State University Swine Teaching and Research Center (Manhattan, Kans.). Each pen was 7.4 m^2 with a slatted floor, contained a nipple waterer and an individual dry feeder that allowed ad libitum access to food and water. Barrows were randomly assigned to 1 of 2 NR treatments, 0 or 30 mg/kg daily of NR mixed in Karo® syrup and administered by oral gavage. Barrows were administered their assigned treatment for 10 days, after which they were harvested under USDA inspection. Twenty-four hours after harvest, carcass measurements were taken by trained personnel, carcasses were fabricated into the 5 major wholesale cuts, and whole-boneless loins were vacuum packaged and aged for 10 days. Loin were cut into 3 chops with chop 1 being used for day-0 metmyoglobin reducing ability (MRA) analysis, chop 2 being used for day-4 MRA and oxygen consumption rate (OCR) analyses, and chop 3 for 8-day objective/subjective color evaluation and MRA and OCR analyses.

[1] = tested on: Fertilized broiler eggs (Cobb 500); assay: In ovo feeding of NR into yolk or albumen: hatched chick body and pectoralis major morphometrics (Example VI); assay type: in vivo, chicken; settings: hatched chicks
Procedure: Fertilized broiler eggs (N=156; Cobb 500; Cobb-Vantress, Siloam Springs, Ark.) with an average weight of 70.3 g were transported in coolers to the Kansas State University Muscle Biology Laboratory (Manhattan, Kans.). Upon arrival, egg weights were recorded, eggs were ordered by weight, and within each 4 egg strata, eggs were randomly assigned to treatments within a 2×2 factorial arrangement. Factor 1 was NR treatment with eggs receiving 0 or 250 mM NR (ChromaDex, Los Angeles, Calif.). Factor 2 was injection location, with treatments injected into either the yolk or albumen. After treatment assignment, eggs were positioned with equal treatment representation onto trays and placed in an incubator (Sportsman 1502; GQF Manufacturing Company Inc., Savannah, Ga.) set to operate at a temperature of 37° C. and a relative humidity of 40±2% for the first 18 d of incubation. The incubator rotated hourly to reposition eggs, and trays were rotated daily throughout the incubator to account for variation in temperature and humidity. Tray weights were recorded each day to determine egg weight loss percentage with a target weight loss of 0.67% per day.
At d 10 of incubation, NR with the equivalent weight of 250 mM was added to 0.9% sterile saline and covered with foil to prevent exposure to light. Sets of 20 eggs representing equal treatment numbers were removed from the incubator, candled to determine location of the yolk and albumen, and the injection site was cleaned with 70% ethanol. Eggs were turned at a 90° angle and a 2.54-cm, 20-guage hypodermic needle was used to create an opening in the shell at the proper injection site. The needle was inserted approximately 1 cm into injection site and 100 μl of the 250 mM NR solution or 0.9% saline solution was injected into the egg. A 1-cm^2 portion of medical tape (Nexcare; 3M, Maplewood, Minn.) was positioned over the injection location and eggs were returned to the incubator.
On d 18 of incubation, the relative humidity of the incubator was increased to 60±2% and eggs were placed into hatching boxes at the bottom of the incubator. As chicks began to hatch, they were removed from the incubator, marked for treatment, and relocated to a box positioned underneath a heat lamp. Approximately 12 to 24 h after hatch, chicks were euthanized by prolonged exposure to CO2 gas and decapitation. Chick weights were recorded, and digital calipers (Traceable Digital Calipers; Fisher Scientific, Pittsburg, Pa.) were utilized to measure crown to rump length, head width, head length. Head and chest circumference were also collected by wrapping a string around the designated area and determining the length against a ruler.
Chick carcasses were sprayed with 70% ethanol and the skin and feathers were pulled back to reveal the pectoralis major (PM) muscles. Prior to PM muscles removal, chest width and length were measured using digital calipers. The left and right PM muscles were removed, careful to not remove the pectoralis minor muscles. The left PM was weighed and dimensions were collected using digital calipers, including length, width, and depth. This muscle was positioned onto a tongue depressor and placed into a −80° C. freezer, where it was stored until it was used for cryosectioning. The heart and liver were also removed, weighed, and discarded.

[2] = d 0 to 17, NR 30 mg/kg daily d 7 to 17
[3] = 250 mM NR, 100 μl into albumen d 10
[4] = 250 mM NR, 100 μl into yolk d 10

In the case of `NC(=O)c1ccc[n+]([C@@H]2O[C@H](CO)[C@@H](O)[C@H]2O)c1` [Nicotinamide riboside, nicotinamide riboside], the “Muscle fiber cross-sectional area (CSA)” value (fertilized broiler eggs) is reported as “did not increase”, the “Increase of average daily gain (numerical)” value (finishing barrows; 30 mg/kg daily oral gavage over 10 days) is reported as 8% and the Body weight (finishing barrows; d 0 (NR 30 mg/kg given d 7 to 17; before treatment)) is reported as 112.0 kg. The Average daily gain (finishing barrows; d 0 to 7 (before NR treatment)) was 0.7 kg, the “Average daily feed intake” value (finishing barrows; [2]) was 3.8 kg and the Average daily gain (finishing barrows; [2]) was 1.1 kg. For the same compound, the “Feed to gain ratio” value (finishing barrows; [2]) was 3.42, the Body weight (finishing barrows; d 7 (start of NR 30 mg/kg, d 7 to 17)) was 117.0 kg and the Average daily gain (finishing barrows; d 7 to 17, NR 30 mg/kg daily) was 1.43 kg. For the same compound, the Body weight (finishing barrows; d 17, NR 30 mg/kg daily d 7 to 17) was 131.3 kg, the “Increase of PM weight” value ([1]; 250 mM NR into the yolk sac) was 38% and the “Increase of PM length” value ([1]; 250 mM NR into the yolk sac, listed as NR) was 22% and 21%. The Body weight [1, 3] was 43.19 g, the Chest length [1, 3] was 21.98 mm and the Chest width [1, 3] was 16.57 mm. It also gave a Crown-rump length [1, 3] of 96.14 mm, a Head circumference [1, 3] of 32.14 mm and a Head length [1, 3] of 21.29 mm. For the same compound, the Head width [1, 3] was 15.56 mm, the Heart weight [1, 3] was 0.35 g and the Liver weight [1, 3] was 1.05 g. For the same compound, the Pectoralis major depth [1, 3] was 2.43 mm, the Pectoralis major length [1, 3] was 18.68^b mm and the Pectoralis major weight [1, 3] was 0.14^a g. The Pectoralis major width [1, 3] was 4.81 mm, the Body weight [1, 4] was 44.02 g and the Chest length [1, 4] was 22.68 mm. For the same compound, the Chest width [1, 4] was 17.69 mm, the Crown-rump length [1, 4] was 89.36 mm and the Head circumference [1, 4] was 31.49 mm. For the same compound, the Head length [1, 4] was 21.73 mm, the Head width [1, 4] was 15.45 mm and the Heart weight [1, 4] was 0.36 g. The Liver weight [1, 4] was 1.11 g, the Pectoralis major depth [1, 4] was 2.65 mm and the Pectoralis major length [1, 4] was 20.74^c mm. The Pectoralis major weight [1, 4] was 0.18^b g, the Pectoralis major width [1, 4] was 5.21 mm and the “Increase of PM width” value ([1]; 250 mM NR, regardless of injection location) was 9%. The “Increase of PM depth” value ([1]; 250 mM NR, regardless of injection location, listed as NR) was 11% and 10%.
